According to the supplement of paper PMC10307832:

Columns and labels:
Assay in all cases: relative viability (nuclei count vs DMSO), 5 days (fraction); higher = more cells survive
ABC-1 = system: ABC-1
Procedure, shortened: (§1)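 Each reported value is a median over duplicate plates. It expresses relative viability: treated-well nuclei count divided by vehicle-well nuclei count. Lung cancer cell lines in 1536-well plates were dosed by pin tool a day after seeding, alone with one drug or with a fixed anchor-drug dose plus five library-drug doses (not always all listed) in √10 steps, and nuclei were counted after 5 days.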

A-427 = system: A-427
Procedure, shortened: as §1

COR-L23 = system: COR-L23
Procedure, shortened: as §1

PC-3 [JPC-3] = system: PC-3 [JPC-3]
Procedure, shortened: as §1

LK-2 = system: LK-2
Procedure, shortened: as §1

NCI-H2170 = system: NCI-H2170
Procedure, shortened: as §1

NCI-H1993 = system: NCI-H1993
Procedure, shortened: as §1

LU99A = system: LU99A
Procedure, shortened: as §1

SK-MES-1 = system: SK-MES-1
Procedure, shortened: as §1

NCI-H727 = system: NCI-H727
Procedure, shortened: as §1

NCI-H3122 = system: NCI-H3122
Procedure, shortened: as §1

NCI-H596 = system: NCI-H596
Procedure, shortened: as §1

NCI-H2228 = system: NCI-H2228
Procedure, shortened: as §1

LXF-289 = system: LXF-289
Procedure, shortened: as §1

NCI-H1793 = system: NCI-H1793
Procedure, shortened: as §1

NCI-H2009 = system: NCI-H2009
Procedure, shortened: as §1

SW 900 = system: SW 900
Procedure, shortened: as §1

SW 1573 = system: SW 1573
Procedure, shortened: as §1

EMC-BAC-2 = system: EMC-BAC-2
Procedure, shortened: as §1

HARA = system: HARA
Procedure, shortened: as §1

HOP-62 = system: HOP-62
Procedure, shortened: as §1

SK-LU-1 = system: SK-LU-1
Procedure, shortened: as §1

NCI-H1944 = system: NCI-H1944
Procedure, shortened: as §1

C[C@@H]1CN(CC(=O)Nc2ccc3c(c2)Cc2cccc(-c4cc(=O)cc(N5CCOCC5)o4)c2S3)C[C@H](C)O1 + Cc1cc(Nc2cc(N3CCN(C)CC3)nc(Sc3ccc(NC(=O)C4CC4)cc3)n2)n[nH]1 [Tozasertib] (partner 0.1 µM)
relative viability (ABC-1; first compound 0.1265 µM): 0.159 | relative viability (ABC-1; first compound 0.4 µM): 0.184 | relative viability (ABC-1; first compound 4 µM): 0.16 | relative viability (A-427; first compound 0.04 µM): 0.176 | relative viability (A-427; first compound 0.1265 µM): 0.214 | relative viability (A-427; first compound 0.4 µM): 0.214 | relative viability (A-427; first compound 4 µM): 0.205 | relative viability (COR-L23; first compound 0.04 µM): 0.199 | relative viability (COR-L23; first compound 0.1265 µM): 0.218 | relative viability (COR-L23; first compound 0.4 µM): 0.159 | relative viability (COR-L23; first compound 4 µM): 0.137 | relative viability (PC-3 [JPC-3]; first compound 0.04 µM): 0.883 | relative viability (PC-3 [JPC-3]; first compound 0.1265 µM): 0.862 | relative viability (PC-3 [JPC-3]; first compound 0.4 µM): 0.871 | relative viability (PC-3 [JPC-3]; first compound 4 µM): 0.74 | relative viability (LK-2; first compound 0.1265 µM): 0.174 | relative viability (LK-2; first compound 0.4 µM): 0.185 | relative viability (LK-2; first compound 4 µM): 0.17 | relative viability (NCI-H2170; first compound 0.04 µM): 0.708 | relative viability (NCI-H2170; first compound 0.1265 µM): 0.764 | relative viability (NCI-H2170; first compound 0.4 µM): 0.719 | relative viability (NCI-H2170; first compound 4 µM): 0.614 | relative viability (NCI-H1993; first compound 0.04 µM): 0.567 | relative viability (NCI-H1993; first compound 0.1265 µM): 0.592 | relative viability (NCI-H1993; first compound 0.4 µM): 0.52 | relative viability (NCI-H1993; first compound 4 µM): 0.569 | relative viability (LU99A; first compound 0.04 µM): 0.243 | relative viability (LU99A; first compound 0.1265 µM): 0.257 | relative viability (LU99A; first compound 0.4 µM): 0.246 | relative viability (LU99A; first compound 4 µM): 0.251 | relative viability (SK-MES-1; first compound 0.04 µM): 1.09 | relative viability (SK-MES-1; first compound 0.1265 µM): 0.852 | relative viability (SK-MES-1; first compound 0.4 µM): 0.826 | relative viability (SK-MES-1; first compound 4 µM): 0.647 | relative viability (NCI-H727; first compound 0.04 µM): 0.797 | relative viability (NCI-H727; first compound 0.1265 µM): 0.736 | relative viability (NCI-H727; first compound 0.4 µM): 0.572 | relative viability (NCI-H727; first compound 4 µM): 0.57 | relative viability (NCI-H3122; first compound 0.04 µM): 0.4 | relative viability (NCI-H3122; first compound 0.1265 µM): 0.403 | relative viability (NCI-H3122; first compound 0.4 µM): 0.265 | relative viability (NCI-H3122; first compound 4 µM): 0.293 | relative viability (NCI-H596; first compound 0.04 µM): 0.934 | relative viability (NCI-H596; first compound 0.1265 µM): 1.13 | relative viability (NCI-H596; first compound 0.4 µM): 0.759 | relative viability (NCI-H596; first compound 4 µM): 0.762 | relative viability (NCI-H2228; first compound 0.04 µM): 0.235 | relative viability (NCI-H2228; first compound 0.1265 µM): 0.214 | relative viability (NCI-H2228; first compound 0.4 µM): 0.245 | relative viability (NCI-H2228; first compound 4 µM): 0.162 | relative viability (LXF-289; first compound 0.04 µM): 0.193 | relative viability (LXF-289; first compound 0.1265 µM): 0.212 | relative viability (LXF-289; first compound 0.4 µM): 0.246 | relative viability (LXF-289; first compound 4 µM): 0.191 | relative viability (NCI-H1793; first compound 0.04 µM): 0.279 | relative viability (NCI-H1793; first compound 0.1265 µM): 0.313 | relative viability (NCI-H1793; first compound 0.4 µM): 0.306 | relative viability (NCI-H1793; first compound 4 µM): 0.17 | relative viability (NCI-H2009; first compound 0.04 µM): 0.856 | relative viability (NCI-H2009; first compound 0.1265 µM): 0.682 | relative viability (NCI-H2009; first compound 0.4 µM): 0.593 | relative viability (NCI-H2009; first compound 4 µM): 0.503 | relative viability (SW 900; first compound 0.04 µM): 0.463 | relative viability (SW 900; first compound 0.1265 µM): 0.579 | relative viability (SW 900; first compound 0.4 µM): 0.476 | relative viability (SW 900; first compound 4 µM): 0.335 | relative viability (SW 1573; first compound 0.04 µM): 0.224 | relative viability (SW 1573; first compound 0.1265 µM): 0.18 | relative viability (SW 1573; first compound 0.4 µM): 0.23 | relative viability (SW 1573; first compound 4 µM): 0.231 | relative viability (EMC-BAC-2; first compound 0.04 µM): 0.257 | relative viability (EMC-BAC-2; first compound 0.1265 µM): 0.29 | relative viability (EMC-BAC-2; first compound 0.4 µM): 0.294 | relative viability (EMC-BAC-2; first compound 4 µM): 0.264 | relative viability (HARA; first compound 0.1265 µM): 0.105 | relative viability (HARA; first compound 0.4 µM): 0.0954 | relative viability (HARA; first compound 4 µM): 0.104 | relative viability (HOP-62; first compound 0.04 µM): 0.378 | relative viability (HOP-62; first compound 0.1265 µM): 0.365 | relative viability (HOP-62; first compound 0.4 µM): 0.35 | relative viability (HOP-62; first compound 4 µM): 0.346 | relative viability (SK-LU-1; first compound 0.04 µM): 0.334 | relative viability (SK-LU-1; first compound 0.1265 µM): 0.326 | relative viability (SK-LU-1; first compound 0.4 µM): 0.323 | relative viability (SK-LU-1; first compound 4 µM): 0.217 | relative viability (NCI-H1944; first compound 0.04 µM): 0.273 | relative viability (NCI-H1944; first compound 0.1265 µM): 0.255 | relative viability (NCI-H1944; first compound 0.4 µM): 0.263 | relative viability (NCI-H1944; first compound 4 µM): 0.23
